# Earlier results in patent US12383619B2, “Use of glutamate modulating agents with immunotherapies to treat cancer” (Biohaven Therapeutics Ltd., priority 2016, dated 2025).
# Like-named read-outs stand apart in the source and are kept apart here.
# Experiments:
# advanced NSCLC = settings: cited from earlier work; for OS: Hazard ratio / PFS: Hazard ratio: pembrolizumab compared to docetaxel
# advanced melanoma = settings: cited from earlier work; for Response duration: Median in months: patients with confirmed complete or partial response; for OS: Hazard ratio / PFS: Hazard ratio: pembrolizumab compared to ipilimumab
# [1] = TPS 1% (entire population), 75 mg/m^2 every 3 weeks
# [2] = TPS≥50% (section head prints 'TPS'), 75 mg/m^2 every 3 weeks
# [3] = TPS 1% (entire population), 2 mg/kg every 3 weeks
# [4] = TPS 1% (entire population), 10 mg/kg every 3 weeks
# [5] = TPS≥50% (section head prints 'TPS'), 2 mg/kg every 3 weeks
# [6] = TPS≥50% (section head prints 'TPS'), 10 mg/kg every 3 weeks
compound,measurement,setting,value
"CC(=O)O[C@@]12CO[C@@H]1C[C@H](O)[C@@]1(C)C(=O)[C@H](O)C3=C(C)[C@@H](OC(=O)[C@H](O)[C@@H](NC(=O)OC(C)(C)C)c4ccccc4)C[C@@](O)([C@@H](OC(=O)c4ccccc4)[C@H]21)C3(C)C [Docetaxel, docetaxel]",PFS: Number of patients with event,"advanced NSCLC; TPS 1% (entire population), 75 mg/m^2 every 3 weeks, BICR, RECIST 1.1",257
same,OS: % of patients with event,advanced NSCLC; [1],(56%)
same,OS: Number of patients with event,advanced NSCLC; [1],193
same,Overall response rate: ORR %,advanced NSCLC; [1],9%
same,PFS: % of patients with event,advanced NSCLC; [1],(75%)
same,PFS: Median in months,advanced NSCLC; [1],4.0 months
same,Response duration: % ongoing,advanced NSCLC; [1],34%
same,Response duration: Median in months,advanced NSCLC; [1],6.2 months
same,Overall response rate: ORR %,"advanced NSCLC; TPS≥50% (section head prints 'TPS'), 75 mg/m^2 every 3 weeks, all partial responses",8%
same,OS: % of patients with event,advanced NSCLC; [2],(57%)
same,OS: Median in months,advanced NSCLC; [2],8.2 months
same,OS: Number of patients with event,advanced NSCLC; [2],86
same,PFS: % of patients with event,advanced NSCLC; [2],(78%)
same,PFS: Median in months,advanced NSCLC; [2],4.1 months
same,PFS: Number of patients with event,advanced NSCLC; [2],118
same,Response duration: % ongoing,advanced NSCLC; [2],33%
same,Response duration: Median in months,advanced NSCLC; [2],8.1 months
Pembrolizumab: humanized monoclonal IgG4 antibody directed against human cell surface receptor PD-1,PFS: Number of patients with event,"advanced NSCLC; TPS 1% (entire population), 2 mg/kg every 3 weeks, BICR, RECIST 1.1",266
same,OS: % of patients with event,advanced NSCLC; [3],(50%)
same,OS: Number of patients with event,advanced NSCLC; [3],172
same,Overall response rate: ORR %,advanced NSCLC; [3],18%
same,PFS: % of patients with event,advanced NSCLC; [3],(77%)
same,PFS: Median in months,advanced NSCLC; [3],3.9 months
same,Response duration: % ongoing,advanced NSCLC; [3],73%
same,Response duration: Median in months,advanced NSCLC; [3],Not reached
same,OS: Hazard ratio,advanced NSCLC; [3],0.71
same,PFS: Hazard ratio,advanced NSCLC; [3],0.88
same,PFS: Number of patients with event,"advanced NSCLC; TPS 1% (entire population), 10 mg/kg every 3 weeks, BICR, RECIST 1.1",255
same,OS: % of patients with event,advanced NSCLC; [4],(45%)
same,OS: Number of patients with event,advanced NSCLC; [4],156
same,Overall response rate: ORR %,advanced NSCLC; [4],18%
same,PFS: % of patients with event,advanced NSCLC; [4],(74%)
same,PFS: Median in months,advanced NSCLC; [4],4.0 months
same,Response duration: % ongoing,advanced NSCLC; [4],72%
same,Response duration: Median in months,advanced NSCLC; [4],Not reached
same,OS: Hazard ratio,advanced NSCLC; [4],0.61
same,PFS: Hazard ratio,advanced NSCLC; [4],0.79
same,Overall response rate: ORR %,"advanced NSCLC; TPS≥50% (section head prints 'TPS'), 2 mg/kg every 3 weeks, all partial responses",30%
same,OS: % of patients with event,advanced NSCLC; [5],(42%)
same,OS: Median in months,advanced NSCLC; [5],14.9 months
same,OS: Number of patients with event,advanced NSCLC; [5],58
same,PFS: % of patients with event,advanced NSCLC; [5],(64%)
same,PFS: Median in months,advanced NSCLC; [5],5.2 months
same,PFS: Number of patients with event,advanced NSCLC; [5],89
same,Response duration: % ongoing,advanced NSCLC; [5],76%
same,Response duration: Median in months,advanced NSCLC; [5],Not reached
same,OS: Hazard ratio,advanced NSCLC; [5],0.54
same,PFS: Hazard ratio,advanced NSCLC; [5],0.58
same,Overall response rate: ORR %,"advanced NSCLC; TPS≥50% (section head prints 'TPS'), 10 mg/kg every 3 weeks, all partial responses",29%
same,OS: % of patients with event,advanced NSCLC; [6],(40%)
same,OS: Median in months,advanced NSCLC; [6],17.3 months
same,OS: Number of patients with event,advanced NSCLC; [6],60
same,PFS: % of patients with event,advanced NSCLC; [6],(64%)
same,PFS: Median in months,advanced NSCLC; [6],5.2 months
same,PFS: Number of patients with event,advanced NSCLC; [6],97
same,Response duration: % ongoing,advanced NSCLC; [6],75%
same,Response duration: Median in months,advanced NSCLC; [6],Not reached
same,OS: Hazard ratio,advanced NSCLC; [6],0.50
same,PFS: Hazard ratio,advanced NSCLC; [6],0.59
same,Best overall response: ORR %,advanced melanoma; 10 mg/kg every 2 weeks,34%
same,Complete response %,advanced melanoma; 10 mg/kg every 2 weeks,5%
same,OS: % of patients with event,advanced melanoma; 10 mg/kg every 2 weeks,(30%)
same,OS: Median in months,advanced melanoma; 10 mg/kg every 2 weeks,Not reached
same,OS: Number of patients with event,advanced melanoma; 10 mg/kg every 2 weeks,85
same,PFS: % of patients with event,advanced melanoma; 10 mg/kg every 2 weeks,(56%)
same,PFS: Median in months,advanced melanoma; 10 mg/kg every 2 weeks,5.5 months
same,PFS: Number of patients with event,advanced melanoma; 10 mg/kg every 2 weeks,157
same,Partial response %,advanced melanoma; 10 mg/kg every 2 weeks,29%
same,Response duration: % ongoing,advanced melanoma; 10 mg/kg every 2 weeks,89%
same,Response duration: Median in months,advanced melanoma; 10 mg/kg every 2 weeks,8.3 months
same,OS: Hazard ratio,advanced melanoma; 10 mg/kg every 2 weeks,0.63
same,PFS: Hazard ratio,advanced melanoma; 10 mg/kg every 2 weeks,0.58
same,Best overall response: ORR %,advanced melanoma; 10 mg/kg every 3 weeks,33%
same,Complete response %,advanced melanoma; 10 mg/kg every 3 weeks,6%
same,OS: % of patients with event,advanced melanoma; 10 mg/kg every 3 weeks,(33%)
same,OS: Median in months,advanced melanoma; 10 mg/kg every 3 weeks,Not reached
same,OS: Number of patients with event,advanced melanoma; 10 mg/kg every 3 weeks,92
same,PFS: % of patients with event,advanced melanoma; 10 mg/kg every 3 weeks,(57%)
same,PFS: Median in months,advanced melanoma; 10 mg/kg every 3 weeks,4.1 months
same,PFS: Number of patients with event,advanced melanoma; 10 mg/kg every 3 weeks,157
same,Partial response %,advanced melanoma; 10 mg/kg every 3 weeks,27%
same,Response duration: % ongoing,advanced melanoma; 10 mg/kg every 3 weeks,97%
same,Response duration: Median in months,advanced melanoma; 10 mg/kg every 3 weeks,Not reached
same,OS: Hazard ratio,advanced melanoma; 10 mg/kg every 3 weeks,0.69
same,PFS: Hazard ratio,advanced melanoma; 10 mg/kg every 3 weeks,0.58
